Laboratory results: US10428104B2, “Substituted nucleoside derivatives useful as anticancer agents” (Pfizer Inc., priority 2015, dated 2019)

What was measured:
[1] = system: A549 lung adenocarcinoma cells; experiment: A549 proliferation assay (Cell Titer Glo, 7 days); type: cell-based; details: Homo sapiens, 168 h, 7 days with compound, cell viability by Cell Titer Glo (ATP)
Method: A549 lung adenocarcinoma cells (American Type CuIture Collection) were maintained in DMEM growth media (Life Technologies) supplemented with 10% v/v heat inactivated fetal bovine serum (Sigma) and cultured at 37° C., 5% CO2. Exponentially growing A549 cells were plated in 96-well black tissue culture treated plates (Corning) at a density of 2500 cells/ml in a volume of 100 μl culture media and allowed to adhere overnight at 37° C., 5% CO2. The following day, compound plates were prepared by making nine-point 3.3-fold dilutions in DMSO with a top concentration of 10 mM. Compounds were further diluted in culture media and 11 μl was added to the cells (final top assay concentration was 10 μM and DMSO was […]). Cells were incubated with compound at 37° C., 5% CO2 for 7 days with media and compound replacement on day 4. Cell viability was assayed on Day 7 by adding 100 μl Cell Titer Glo (Promega) reagent to the plate to measure the amount of ATP present in the cells. Luminescence was read using the Envision 2104 Multilabel Reader (Perkin Elmer).
Results for the A549 proliferation assay of examples are summarized in Table 2, shown as IC50 values in μM.

[2] = target: PRMT5/MEP50 protein complex (Homo sapiens (Human), UniProt O14744); experiment: PRMT5 biochemical assay (3H-SAM methylation of H4(1-21) peptide, filter plate scintillation counting); details: PRMT5 enzyme inhibition; 10 nM PRMT5/MEP50 complex, 200 nM H4(1-21) peptide, 1 uM SAM, 25 minute incubation at room temperature
PRMT5/MEP50 protein complex, sequence (O14744 other isoform, or with tags, fused parts or gaps): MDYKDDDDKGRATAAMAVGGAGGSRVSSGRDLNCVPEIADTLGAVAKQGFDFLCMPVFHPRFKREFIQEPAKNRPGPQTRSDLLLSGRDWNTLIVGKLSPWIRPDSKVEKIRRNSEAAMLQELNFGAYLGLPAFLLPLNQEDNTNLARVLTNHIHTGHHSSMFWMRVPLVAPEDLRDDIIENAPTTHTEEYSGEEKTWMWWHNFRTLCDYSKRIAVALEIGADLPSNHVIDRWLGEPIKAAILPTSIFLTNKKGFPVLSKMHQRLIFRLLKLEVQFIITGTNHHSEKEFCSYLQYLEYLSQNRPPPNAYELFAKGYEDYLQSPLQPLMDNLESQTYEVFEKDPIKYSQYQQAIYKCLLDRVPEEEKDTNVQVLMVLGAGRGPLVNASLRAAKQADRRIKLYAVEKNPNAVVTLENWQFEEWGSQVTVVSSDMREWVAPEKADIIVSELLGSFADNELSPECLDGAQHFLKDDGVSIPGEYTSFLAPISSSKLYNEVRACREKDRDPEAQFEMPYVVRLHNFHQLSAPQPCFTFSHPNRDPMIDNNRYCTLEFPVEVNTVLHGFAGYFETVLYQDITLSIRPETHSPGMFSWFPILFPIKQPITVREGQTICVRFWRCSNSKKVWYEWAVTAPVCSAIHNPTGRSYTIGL
PRMT5/MEP50 protein complex, sequence (Q9BQA1 whole entry partner): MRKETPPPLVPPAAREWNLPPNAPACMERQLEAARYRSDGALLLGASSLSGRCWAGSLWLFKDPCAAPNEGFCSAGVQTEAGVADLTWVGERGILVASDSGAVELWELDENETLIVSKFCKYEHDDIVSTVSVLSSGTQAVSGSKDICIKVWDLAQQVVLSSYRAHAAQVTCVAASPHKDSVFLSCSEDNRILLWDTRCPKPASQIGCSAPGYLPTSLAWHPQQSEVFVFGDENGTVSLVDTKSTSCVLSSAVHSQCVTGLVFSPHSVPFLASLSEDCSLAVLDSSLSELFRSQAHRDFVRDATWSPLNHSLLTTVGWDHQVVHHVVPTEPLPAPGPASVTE
Procedure, shortened: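 Flag-PRMT5/MEP50 was co-expressed in Sf21 cells and Flag-affinity purified. Reactions used 10 nM complex, 200 nM H4(1-21) peptide and 1 uM 3H-SAM (final) in 50 mM Tris pH 8.5, 50 mM NaCl, 5 mM MgCl2, 1 mM EDTA and 1 mM TCEP, run 25 min at room temperature. Reactions were TCA-stopped, filter-captured and scintillation-counted; IC50 came from a 4-parameter fit.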

Structure (SMILES) | IC50 [1] [nM] | IC50 [2] [nM]
Cc1ncnc2c1ccn2[C@@H]1O[C@H]([C@H](F)c2ccc(F)c(F)c2)[C@@H](O)[C@H]1O [Example 92, (2S,3S,4R,5R)-2-((R)-(3,4-difluorophenyl)fluoromethyl)-5-(4-methyl-7H-pyrrolo[2,3-d]pyrimidin-7-yl)tetrahydrofuran-3,4-diol] | 257 | 14
CCC[C@@H](O)[C@H]1O[C@@H](n2ccc3c(C)nc(N)nc32)[C@H](O)[C@@H]1O [Example 63, (2R,3R,4S,5R)-2-(2-amino-4-methyl-7H-pyrrolo[2,3-d]pyrimidin-7-yl)-5-((R)-1-hydroxybutyl)tetrahydrofuran-3,4-diol] | 3400 | 38
O[C@@H]1[C@H](O)[C@@H]([C@H](O)c2ccc(F)c(F)c2)O[C@H]1n1ccc2cncnc21 [Example 117, (2R,3S,4R,5R)-2-((R)-(3,4-difluorophenyl)(hydroxy)methyl)-5-(7H-pyrrolo[2,3-d]pyrimidin-7-yl)tetrahydrofuran-3,4-diol] | 92 | 5
Cc1nc(C)c2ccn([C@@H]3O[C@H]([C@H](O)c4ccc(F)cc4)[C@@H](O)[C@H]3O)c2n1 [Example 99, (2R,3R,4S,5R)-2-(2,4-dimethyl-7H-pyrrolo[2,3-d]pyrimidin-7-yl)-5-((R)-(4-fluorophenyl)(hydroxy)methyl)tetrahydrofuran-3,4-diol] | 364 | 21
Cc1nc(N)nc2c1ccn2[C@@H]1O[C@H]([C@H](O)c2ccc(F)cc2)[C@@H](O)[C@H]1O [Example 64, (2R,3R,4S,5R)-2-(2-amino-4-methyl-7H-pyrrolo[2,3-d]pyrimidin-7-yl)-5-((R)-(4-fluorophenyl)(hydroxy)methyl)tetrahydrofuran-3,4-diol] | 18 | 5
Nc1ncnc2c1c(F)cn2[C@@H]1O[C@H]([C@H](O)c2ccc(F)cn2)[C@@H](O)[C@H]1O [Example 83, (2R,3R,4S,5R)-2-(4-amino-5-fluoro-7H-pyrrolo[2,3-d]pyrimidin-7-yl)-5-((R)-(5-fluoropyridin-2-yl)(hydroxy)methyl)tetrahydrofuran-3,4-diol] | 323 | 13

Further lines, results first:

IC50 [1] [nM] | IC50 [2] [nM] | Structure (SMILES)
15 | 3 | Cc1ncnc2c1ccn2[C@@H]1O[C@H]([C@H](O)c2ccc(F)c(Cl)c2)[C@@H](O)[C@H]1O [Example 11, (2R,3S,4R,5R)-2-((R)-(3-chloro-4-fluorophenyl)(hydroxy)methyl)-5-(4-methyl-7H-pyrrolo[2,3-d]pyrimidin-7-yl)tetrahydrofuran-3,4-diol]
3400 | 52 | Cc1ncnc2c1ccn2[C@@H]1O[C@H]([C@@H](C)O)[C@@H](O)[C@H]1O [Example 44, (2R,3S,4R,5R)-2-((R)-1-hydroxyethyl)-5-(4-methyl-7H-pyrrolo[2,3-d]pyrimidin-7-yl)tetrahydrofuran-3,4-diol]
25 | 5 | Cc1ncnc2c1ccn2[C@@H]1O[C@H]([C@H](O)c2cccc(Cl)c2)[C@@H](O)[C@H]1O [Example 32, (2R,3S,4R,5R)-2-((R)-(3-chlorophenyl)(hydroxy)methyl)-5-(4-methyl-7H-pyrrolo[2,3-d]pyrimidin-7-yl)tetrahydrofuran-3,4-diol]
211 | 18 | Cc1ncnc2c1ccn2[C@@H]1O[C@H]([C@H](O)c2ccccc2)[C@@H](O)[C@H]1O [Example 26, (2R,3S,4R,5R)-2-((R)-hydroxy(phenyl)methyl)-5-(4-methyl-7H-pyrrolo[2,3-d]pyrimidin-7-yl)tetrahydrofuran-3,4-diol]
5 | 1 | Nc1ncnc2c1ccn2[C@@H]1O[C@H]([C@H](O)c2ccc(Cl)cc2)[C@@H](O)[C@H]1O [Example 87, (2R,3R,4S,5R)-2-(4-amino-7H-pyrrolo[2,3-d]pyrimidin-7-yl)-5-((R)-(4-chlorophenyl)(hydroxy)methyl)tetrahydrofuran-3,4-diol]
2700 | 114 | CC[C@@H](O)[C@H]1O[C@@H](n2ccc3c(C)ncnc32)[C@H](O)[C@@H]1O [Example 40, (2R,3S,4R,5R)-2-((R)-1-hydroxypropyl)-5-(4-methyl-7H-pyrrolo[2,3-d]pyrimidin-7-yl)tetrahydrofuran-3,4-diol]
9 | 2 | Nc1ncnc2c1ccn2[C@@H]1O[C@H]([C@H](O)c2ccc(F)cc2)[C@@H](O)[C@H]1O [Example 86, (2R,3R,4S,5R)-2-(4-amino-7H-pyrrolo[2,3-d]pyrimidin-7-yl)-5-((R)-(4-fluorophenyl)(hydroxy)methyl)tetrahydrofuran-3,4-diol]
4400 | 2640 | Cc1ncnc2c1ccn2[C@@H]1O[C@H]([C@@H](O)c2cccc(Cl)c2)[C@@H](O)[C@H]1O [Example 33, (2R,3S,4R,5R)-2-((S)-(3-chlorophenyl)(hydroxy)methyl)-5-(4-methyl-7H-pyrrolo[2,3-d]pyrimidin-7-yl)tetrahydrofuran-3,4-diol]
44 | 6 | Cc1ncnc2c1ccn2[C@@H]1O[C@H]([C@H](O)c2cc(F)cc(F)c2)[C@@H](O)[C@H]1O [Example 36, (2R,3S,4R,5R)-2-((R)-(3,5-difluorophenyl)(hydroxy)methyl)-5-(4-methyl-7H-pyrrolo[2,3-d]pyrimidin-7-yl)tetrahydrofuran-3,4-diol]
